{"source": "patent US20230365572A1", "about": "“HYDROXYLBENZYL AZABICYCLO[2.2.1]HEPTAN-1-ANE DRIVATIVES AND MEDICAL USES THEREOF” (ATROGI AB, priority 2020, published 2023)", "format_in_all_cases": "cell-based", "key": {"[1]": {"tested_on": "L6-myotubes", "assay": "Glucose uptake in differentiated L6-myotubes (3H-2-deoxy-glucose)", "settings": "read-out: Biological example 1: glucose uptake, activity compared to that of isoproterenol", "description": "L6-myoblasts were grown in Dulbecco's Modified Eagle's Medium (DMEM) containing 4.5 g/l glucose supplemented with 10% fetal bovine serum, 2 mM L-Glutamine, 50 U/ml penicillin, 50 1.1g/ml streptomycin and 10 mM HEPES. Cells were plated at 1×10^5 cells per ml in 24-well plates. After reaching 90% confluence the cells were grown in medium containing 2% FBS for 7 days where upon cells differentiated into myotubes. Differentiated L6-myotubes were serum-starved over night in medium containing 0.5% fatty-acid free BSA and stimulated with agonist, final concentration 1×10^−5. After 1 h 40 min cells were washed with warm, glucose free medium or PBS and another portion of agonist was added to glucose free medium. After 20 min the cells were exposed to 50 nM ^3H-2-deoxy-glucose for another 10 min before washed in ice cold glucose free medium or PBS and lysed in 0.2 M NaOH for 1 h in 60° C."}, "[2]": {"tested_on": "Intracellular cAMP levels", "assay": "Measurement of intracellular cAMP levels in differentiated L6 cells (alpha screen cAMP kit)", "settings": "Rattus norvegicus, L6, 0.25 h, read-out: Biological example 2: intracellular cAMP levels, activity compared to that of isoproterenol", "description": "L6-myoblasts were grown in Dulbecco's Modified Eagle's Medium (DMEM) containing 4.5 g/l glucose supplemented with 10% fetal bovine serum, 2 mM L-Glutamine, 50 U/ml penicillin, 50 1.1g/ml streptomycin and 10 mM HEPES. Cells were plated at 1×10^5 cells per ml in 24-well plates. After reaching 90% confluence the cells were grown in medium containing 2% FBS for 7 days where upon cells differentiated into myotubes. Differentiated cells were serum-starved over night and stimulated with agonist, final concentration 1×10^−5 M, for 15 min in stimulation buffer (HBSS supplemented with 1% BSA, 5 mM HEPES and 1 mM IBMX, pH 7,4) The medium was then aspirated and to end the reaction 100 μL of 95% EtOH was added to each well of a 24-well plate and cells were kept in […] over night. The EtOH was let to evaporate and 5001 μof lysis buffer (1% BSA, 5 mM HEPES and 0.3% Tween-20, pH 7,4) was added to each well before put in −80° C. for 30 min and then kept in −20° C. Intracellular cAMP levels were detected using an alpha screen cAMP kit (6760635D from Perkin Elmer). The activity for each compound is compared to that of isoproterenol."}, "[3]": {"tested_on": "L6-myotubes", "assay": "Glucose uptake in L6-myotubes in the presence of the β2-antagonist ICI-118,551", "settings": "differentiated L6-myotubes, ICI-118,551 1×10^−5 M, compound 1×10^−5 M", "description": "L6-myoblasts were grown in Dulbecco's Modified Eagle's Medium (DMEM) containing 4.5 g/l glucose supplemented with 10% fetal bovine serum, 2 mM L-Glutamine, 50 U/ml penicillin, 50 1.1g/ml streptomycin and 10 mM HEPES. Cells were plated at 1×10^5 cells per ml in 24-well plates. After reaching 90% confluence the cells were grown in medium containing 2% FBS for 7 days where upon cells differentiated into myotubes. Differentiated L6-myotubes were serum-starved overnight in medium containing 0.5% fatty-acid free BSA and were incubated with the β2-adrenergic receptor antagonist ICI-118,551 at a final concentration of 1×10^−5 M for 30 min. The cells were stimulated with a compound of the invention, at a final concentration of 1×10^−5 M. After 1 h 40 min the cells were washed twice with warm, glucose free medium or PBS and additional portions of the compound of the invention and the antagonist were added. After 20 min the cells were exposed to 50 nM ^3H-2-deoxyglucose for 10 min before washed with ice cold glucose free medium or PBS three times and lysed with 0.2 M NaOH, 400 μL/well, for 1 h at 60° C. The cell lysate was mixed with 4 mL scintillation buffer (Emulsifier Safe, Perkin Elmer) and the radioactivity was detected in a β-counter (Tri-Carb 4810TR, Perkin Elmer). The activity for each compound is compared to that of isoproterenol."}, "[4]": {"settings": "differentiated L6-myotubes, agonist final concentration 1×10^−5, 3H-2-deoxy-glucose uptake"}, "[5]": {"settings": "differentiated cells, agonist final concentration 1×10^−5 M, 15 min"}}, "note": "Where a name gives a salt, the structure may show the parent alone. Read-outs that look alike come from different tables or passages of the source.", "data": [{"compound": "CC12CCC([C@H](O)c3cccc(F)c3)(CC1)N2", "note": "[Example 1, (R)-(3-Fluorophenyl)(4-methyl-7-azabicyclo[2.2.1]heptan-1-yl)methanol hydrochloride]", "values": [{"measurement": "Emax at 10 µM", "setting": "[1]; [4]", "value": "> 75", "unit": "%"}, {"measurement": "Emax at 10 µM", "setting": "[2]; [5]", "value": "< 25", "unit": "%"}, {"measurement": "Biological example 3: glucose uptake in the presence of the β2-antagonist ICI-118,551, activity compared to that of isoproterenol", "setting": "[3]", "value": "− (if it less than 25% it is denoted with)"}]}, {"compound": "CC12CCC([C@@H](O)c3cccc(F)c3)(CC1)N2", "note": "[Example 2, (S)-(3-Fluorophenyl)(4-methyl-7-azabicyclo[2.2.1]heptan-1-yl)methanol hydrochloride]", "values": [{"measurement": "Emax at 10 µM", "setting": "[1]; [4]", "value": "> 75", "unit": "%"}, {"measurement": "Emax at 10 µM", "setting": "[2]; [5]", "value": "< 25", "unit": "%"}, {"measurement": "Biological example 3: glucose uptake in the presence of the β2-antagonist ICI-118,551, activity compared to that of isoproterenol", "setting": "[3]", "value": "− (if it less than 25% it is denoted with)"}]}, {"compound": "CC12CCC([C@H](O)c3ccccc3F)(CC1)N2", "note": "[Example 3, (R)-(2-Fluorophenyl)(4-methyl-7-azabicyclo[2.2.1]heptan-1-yl)methanol hydrochloride]", "values": [{"measurement": "Emax at 10 µM", "setting": "[1]; [4]", "value": "50 to 75", "unit": "%"}, {"measurement": "Emax at 10 µM", "setting": "[2]; [5]", "value": "< 25", "unit": "%"}]}, {"compound": "CC12CCC([C@@H](O)c3ccccc3F)(CC1)N2", "note": "[Example 4, (S)-(2-Fluorophenyl)(4-methyl-7-azabicyclo[2.2.1]heptan-1-yl)methanol hydrochloride]", "values": [{"measurement": "Emax at 10 µM", "setting": "[1]; [4]", "value": "25 to 50", "unit": "%"}, {"measurement": "Emax at 10 µM", "setting": "[2]; [5]", "value": "< 25", "unit": "%"}]}, {"compound": "CC12CCC([C@H](O)c3cccc(Cl)c3)(CC1)N2", "note": "[Example 5, (R)-(3-Chlorophenyl)(4-methyl-7-azabicyclo[2.2.1]heptan-1-yl)methanol hydrochloride]", "values": [{"measurement": "Emax at 10 µM", "setting": "[1]; [4]", "value": "> 75", "unit": "%"}, {"measurement": "Emax at 10 µM", "setting": "[2]; [5]", "value": "< 25", "unit": "%"}]}, {"compound": "CC12CCC([C@@H](O)c3cccc(Cl)c3)(CC1)N2", "note": "[Example 6, (S)-(3-Chlorophenyl)(4-methyl-7-azabicyclo[2.2.1]heptan-1-yl)methanol hydrochloride]", "values": [{"measurement": "Emax at 10 µM", "setting": "[1]; [4]", "value": "25 to 50", "unit": "%"}, {"measurement": "Emax at 10 µM", "setting": "[2]; [5]", "value": "< 25", "unit": "%"}]}, {"compound": "CC12CCC([C@H](O)c3ccccc3Cl)(CC1)N2", "note": "[Example 7, (R)-(2-Chlorophenyl)(4-methyl-7-azabicyclo[2.2.1]heptan-1-yl)methanol hydrochloride]", "values": [{"measurement": "Emax at 10 µM", "setting": "[1]; [4]", "value": "> 75", "unit": "%"}, {"measurement": "Emax at 10 µM", "setting": "[2]; [5]", "value": "< 25", "unit": "%"}]}, {"compound": "CC12CCC([C@@H](O)c3ccccc3Cl)(CC1)N2", "note": "[Example 8, (5)-(2-Chlorophenyl)(4-methyl-7-azabicyclo[2.2.1]heptan-1-yl)methanol hydrochloride]", "values": [{"measurement": "Emax at 10 µM", "setting": "[1]; [4]", "value": "25 to 50", "unit": "%"}, {"measurement": "Emax at 10 µM", "setting": "[2]; [5]", "value": "< 25", "unit": "%"}]}, {"compound": "CC12CCC([C@H](O)c3cncc(F)c3)(CC1)N2", "note": "[Example 9, (R)-(3-fluoropyridin-4-yl)(4-methyl-7-azabicydo[2.2.1]heptan-1-yl)-methanol]", "values": [{"measurement": "Emax at 10 µM", "setting": "[1]; [4]", "value": "> 75", "unit": "%"}, {"measurement": "Emax at 10 µM", "setting": "[2]; [5]", "value": "< 25", "unit": "%"}]}, {"compound": "CC12CCC([C@@H](O)c3cncc(F)c3)(CC1)N2", "note": "[Example 10, (S)-(3-fluoropyridin-4-yl)(4-methyl-7-azabicydo[2.2.1]heptan-1-yl)-methanol]", "values": [{"measurement": "Emax at 10 µM", "setting": "[1]; [4]", "value": "50 to 75", "unit": "%"}, {"measurement": "Emax at 10 µM", "setting": "[2]; [5]", "value": "< 25", "unit": "%"}]}, {"compound": "CC12CCC([C@H](O)c3ccncc3F)(CC1)N2", "note": "[Example 11, (R)-(3-Fluoropyridin-4-yl)(4-methyl-7-azabicyclo[2.2.1]heptan-1-yl)-methanol]", "values": [{"measurement": "Emax at 10 µM", "setting": "[1]; [4]", "value": "< 25", "unit": "%"}, {"measurement": "Emax at 10 µM", "setting": "[2]; [5]", "value": "< 25", "unit": "%"}]}, {"compound": "CC12CCC([C@@H](O)c3ccncc3F)(CC1)N2", "note": "[Example 12, (S)-(3-Fluoropyridin-4-yl)(4-methyl-7-azabicydo[2.2.1]heptan-1-yl)-methanol]", "values": [{"measurement": "Emax at 10 µM", "setting": "[1]; [4]", "value": "< 25", "unit": "%"}, {"measurement": "Emax at 10 µM", "setting": "[2]; [5]", "value": "< 25", "unit": "%"}]}, {"compound": "CCCC12CCC([C@H](O)c3cccc(F)c3)(CC1)N2", "note": "[Example 13, (R)-(3-Fluorophenyl)(4-propyl-7-azabicyclo[2.2.1]heptan-1-yl)methanol hydrochloride]", "values": [{"measurement": "Emax at 10 µM", "setting": "[1]; [4]", "value": "50 to 75", "unit": "%"}, {"measurement": "Emax at 10 µM", "setting": "[2]; [5]", "value": "25 to 50", "unit": "%"}]}, {"compound": "CCCC12CCC([C@@H](O)c3cccc(F)c3)(CC1)N2", "note": "[Example 14, (S)-(3-Fluorophenyl)(4-propyl-7-azabicyclo[2.2.1]heptan-1-yl)methanol hydrochloride]", "values": [{"measurement": "Emax at 10 µM", "setting": "[1]; [4]", "value": "< 25", "unit": "%"}, {"measurement": "Emax at 10 µM", "setting": "[2]; [5]", "value": "< 25", "unit": "%"}]}, {"compound": "COCC12CCC([C@@H](O)c3cccc(F)c3)(CC1)N2", "note": "[Example 15, (S)-(3-Fluorophenyl)(4-(methoxymethyl)-7-azabicyclo[2.2.1]heptan-1-yl)methanol hydrochloride]", "values": [{"measurement": "Emax at 10 µM", "setting": "[1]", "value": "50 to 75", "unit": "%"}, {"measurement": "Emax at 10 µM", "setting": "[2]", "value": "< 25", "unit": "%"}]}, {"compound": "COCC12CCC([C@H](O)c3cccc(F)c3)(CC1)N2", "note": "[Example 16, (R)-(3-Fluorophenyl)(4-(methoxymethyl)-7-azabicyclo[2.2.1]heptan-1-yl)methanol hydrochloride]", "values": [{"measurement": "Emax at 10 µM", "setting": "[1]", "value": "> 75", "unit": "%"}, {"measurement": "Emax at 10 µM", "setting": "[2]", "value": "< 25", "unit": "%"}, {"measurement": "Biological example 3: glucose uptake in the presence of the β2-antagonist ICI-118,551, activity compared to that of isoproterenol", "setting": "[3]", "value": "− (if it less than 25% it is denoted with)"}]}, {"compound": "O[C@@H](c1cccc(F)c1)C12CCC(COc3ccc(Cl)cc3)(CC1)N2", "note": "[Example 17, (S)-(4-((4-Chlorophenoxy)methyl)-7-azabicyclo[2.2.1]heptan-1-yl)(3-fluorophenyl)methanol]", "values": [{"measurement": "Emax at 10 µM", "setting": "[1]; [4]", "value": "50 to 75", "unit": "%"}, {"measurement": "Emax at 10 µM", "setting": "[2]; [5]", "value": "< 25", "unit": "%"}]}, {"compound": "O[C@H](c1cccc(F)c1)C12CCC(COc3ccc(Cl)cc3)(CC1)N2", "note": "[Example 18, (R)-(4-((4-Chlorophenoxy)methyl)-7-azabicyclo[2.2.1]heptan-1-yl) (3-fluorophenyl)methanol]", "values": [{"measurement": "Emax at 10 µM", "setting": "[1]; [4]", "value": "> 75", "unit": "%"}, {"measurement": "Emax at 10 µM", "setting": "[2]; [5]", "value": "< 25", "unit": "%"}]}]}
